From PubChem BioAssay (NCI) come the findings set out here.

Some test systems named below: UO-31 renal; NCI-H460 lung; COLO 205 colon; HOP-62 NSCLC; HOP-92 NSCLC; 786-0 renal; SF-268 CNS; RPMI-8226 leukemia; SK-MEL-28 melanoma; SK-OV-3 ovarian.
Assay in all cases: growth of human tumour cells (NCI), 48 h

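How tested: cells in 96-well plates exposed to compound for 48 hours at five concentrations. At the GI50, growth is halved. Definition used: TGI = concentration required for complete inhibition of growth.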 Bounds are passed on as bounds.

With `CCCN1C(=O)N(CCC)C2C1NC(=S)N2/N=C/C=C/c1ccccc1OC` (stereo not given), the GI50 in the assay on UO-31 renal is 1.26 µM; in the assay with NCI-H460 lung, 0.418 µM; in the assay with COLO 205 colon, 0.52 µM; in the assay on HOP-62 NSCLC, 0.713 µM; in the assay with HOP-92 NSCLC, 0.624 µM; in the assay on 786-0 renal, 0.779 µM. Besides, the GI50 in the assay with SF-268 CNS is 1.15 µM; with RPMI-8226 leukemia, 0.69 µM; in the assay on SK-MEL-28 melanoma, 6.26 µM; in the assay with SK-OV-3 ovarian, 0.518 µM. Also, the TGI in the assay with UO-31 renal is over 100 µM; in the assay with NCI-H460 lung, 16.5 µM; in the assay with COLO 205 colon it was 9.09 µM; in the assay on HOP-62 NSCLC it was over 100 µM; in the assay with HOP-92 NSCLC it was over 100 µM; in the assay on 786-0 renal it was over 68.8 µM. Further, the TGI with SF-268 CNS is 53.4 µM; with RPMI-8226 leukemia, 16.7 µM; in the assay on SK-MEL-28 melanoma, over 100 µM; with SK-OV-3 ovarian it was over 100 µM.
For `CC(=O)Oc1c2c(c(O)c3ccccc13)C(n1cnc3c(ncn3C3OC(CO)C4OC(C)(C)OC43)c1=N)CCC2` (stereo not given), the TGI came to 29.8 µM with UO-31 renal; 62.4 µM in the assay on NCI-H460 lung; 37.6 µM with COLO 205 colon; 30.6 µM in the assay on HOP-62 NSCLC; 39.1 µM with HOP-92 NSCLC; 27.8 µM in the assay with 786-0 renal. Besides, the TGI in the assay with SF-268 CNS was determined as 30.7 µM; with RPMI-8226 leukemia, 18.7 µM; with SK-MEL-28 melanoma it was 31.8 µM; with SK-OV-3 ovarian, 33.1 µM.
Consider `CN1CCOC(c2ccccc2)O1` (stereo not given), for which the TGI with UO-31 renal, in the assay on NCI-H460 lung, in the assay with COLO 205 colon, with HOP-62 NSCLC, in the assay on HOP-92 NSCLC and in the assay on 786-0 renal was over 100 µM each time. Besides, the TGI in the assay with SF-268 CNS, in the assay on RPMI-8226 leukemia, with SK-MEL-28 melanoma and in the assay on SK-OV-3 ovarian was over 100 µM throughout.
On to `CCC[CH2][Sn]([Cl])([CH2]CCC)[CH2]CCC`, for which the GI50 with UO-31 renal is 0.16 µM; in the assay on NCI-H460 lung it was 0.13 µM; in the assay with COLO 205 colon, 0.134 µM; in the assay on HOP-62 NSCLC, 0.271 µM; in the assay with HOP-92 NSCLC it was 0.0452 µM; in the assay on 786-0 renal it was 0.087 µM. The GI50 in the assay with SF-268 CNS was 0.148 µM; in the assay on RPMI-8226 leukemia it was 0.0171 µM; in the assay on SK-MEL-28 melanoma, 0.139 µM; in the assay on SK-OV-3 ovarian, 0.181 µM. Besides, the TGI in the assay with UO-31 renal turned out to be 0.312 µM; with NCI-H460 lung it was 0.298 µM; with COLO 205 colon it was 0.278 µM; in the assay on HOP-62 NSCLC, 1.13 µM; with HOP-92 NSCLC, 0.188 µM; with 786-0 renal it was 0.21 µM. Also, the TGI in the assay on SF-268 CNS came out at 0.314 µM; in the assay with RPMI-8226 leukemia it was 0.168 µM; in the assay with SK-MEL-28 melanoma, 0.269 µM; with SK-OV-3 ovarian, 0.56 µM.
As for `COc1cc(-c2cc(-c3cc4c([nH]c5ccccc54)c(-c4cc(OC)c(OC)c(OC)c4)n3)cc(-c3ccccc3)n2)cc(OC)c1OC`, the GI50 in the assay on UO-31 renal is 3.02 µM; in the assay on NCI-H460 lung it was 3.37 µM; in the assay with COLO 205 colon, 4.11 µM; with HOP-62 NSCLC it was 4.53 µM; with HOP-92 NSCLC it was 1.45 µM; in the assay with 786-0 renal, 7.15 µM. Besides, the GI50 with SF-268 CNS is 4.96 µM; with RPMI-8226 leukemia, 2.88 µM; in the assay on SK-MEL-28 melanoma it was 4.3 µM; with SK-OV-3 ovarian it was 5 µM. In addition, the TGI in the assay on UO-31 renal was 74.4 µM; in the assay on NCI-H460 lung, 18.1 µM; in the assay on COLO 205 colon it was 21.9 µM; in the assay on HOP-62 NSCLC, over 100 µM; with HOP-92 NSCLC, 6.25 µM; in the assay with 786-0 renal, over 100 µM. Also, the TGI with SF-268 CNS was over 100 µM; with RPMI-8226 leukemia, 18.5 µM; in the assay on SK-MEL-28 melanoma, 30.2 µM; in the assay with SK-OV-3 ovarian it was 51.9 µM.
Regarding `O=C(CSc1nc2ccccc2nc1-c1ccccc1)Nc1ccc(F)cc1`, the GI50 in the assay with UO-31 renal was 45.7 µM; in the assay on NCI-H460 lung, 60.7 µM; with COLO 205 colon, 83.3 µM; in the assay on HOP-62 NSCLC it was 32.6 µM; in the assay on HOP-92 NSCLC it was 20.3 µM; in the assay with 786-0 renal, 49.2 µM. Further, the GI50 in the assay on SF-268 CNS was 41.6 µM; in the assay on RPMI-8226 leukemia, 58.5 µM; in the assay with SK-MEL-28 melanoma it was 63.9 µM; in the assay on SK-OV-3 ovarian, 35 µM. The TGI with UO-31 renal was over 100 µM; in the assay on NCI-H460 lung, over 100 µM; in the assay with COLO 205 colon it was over 100 µM; with HOP-62 NSCLC, over 100 µM; with HOP-92 NSCLC it was 58.1 µM; in the assay on 786-0 renal it was over 100 µM. In addition, the TGI in the assay on SF-268 CNS, with RPMI-8226 leukemia, with SK-MEL-28 melanoma and with SK-OV-3 ovarian was over 100 µM each time.
With `O=C(/C=C/c1cccc2ccccc12)c1ccccc1Cl`, the TGI in the assay with UO-31 renal was 28 µM; with NCI-H460 lung, 29.2 µM; in the assay on COLO 205 colon it was over 100 µM; in the assay on HOP-62 NSCLC, 37.3 µM; with HOP-92 NSCLC, 26.4 µM; with 786-0 renal, 27.2 µM. Moreover, the TGI in the assay with SF-268 CNS worked out at 36.5 µM; with RPMI-8226 leukemia, 47.3 µM; in the assay with SK-MEL-28 melanoma, 34 µM; in the assay with SK-OV-3 ovarian, 43.1 µM.
Take `COc1c(OC[C@H](O)CN2CCOCC2)ccc2c3n(c(=NC(=O)c4cccnc4C)nc12)CCN3`: the GI50 is 0.263 µM in the assay with UO-31 renal; 0.528 µM in the assay with NCI-H460 lung; 0.918 µM in the assay on COLO 205 colon; 1.41 µM with HOP-62 NSCLC; 0.0637 µM in the assay with HOP-92 NSCLC; 0.399 µM with 786-0 renal. Moreover, the GI50 in the assay with SF-268 CNS was 12.4 µM; with RPMI-8226 leukemia, over 50 µM; in the assay with SK-MEL-28 melanoma, 0.465 µM; with SK-OV-3 ovarian, 0.115 µM. For the same compound, the TGI is over 50 µM in the assay with UO-31 renal; over 50 µM with NCI-H460 lung; over 50 µM with COLO 205 colon; over 50 µM in the assay on HOP-62 NSCLC; 10.1 µM with HOP-92 NSCLC; over 50 µM in the assay on 786-0 renal. Also, the TGI with SF-268 CNS was over 50 µM; with RPMI-8226 leukemia, over 50 µM; in the assay on SK-MEL-28 melanoma it was over 50 µM; with SK-OV-3 ovarian, 2.27 µM.
Consider `O=C(CCc1n[nH]c(=S)o1)Nc1ccccc1C(F)(F)F`, for which the TGI in the assay on UO-31 renal, in the assay on NCI-H460 lung, in the assay on COLO 205 colon, in the assay on HOP-62 NSCLC, in the assay on HOP-92 NSCLC and in the assay on 786-0 renal was over 100 µM each time. The TGI in the assay with SF-268 CNS was over 100 µM; with RPMI-8226 leukemia, 85.1 µM; in the assay with SK-MEL-28 melanoma, over 100 µM; in the assay on SK-OV-3 ovarian, over 100 µM.
